# Read-outs that look alike come from different tables or passages of the source.
# Test system: test plant species
# Experiment: Post-emergent herbicidal activity test (greenhouse, foliar spray, visual growth reduction)
# Format: in vivo
# Conditions: post-emergence, 336 h, 140 g ai/ha, 14 days after application
# In short: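 Plants grown in greenhouse (15 h photoperiod, 23-29° C day/22-28° C night) to first or second true leaf stage were sprayed overhead with compound in acetone/water/isopropanol/DMSO/crop oil/X-77 carrier at 187 L/ha. Injury was scored visually after 14 d on a 0-100% scale versus solvent-blank and untreated controls.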
# [1] = ALOMY: blackgrass (Alopecurus myosuroides), read-out: Visual Growth Reduction (%) 14 Days After Application, ALOMY
# [2] = AMARE: redroot pigweed (Amaranthus retroflexus), read-out: Visual Growth Reduction (%) 14 Days After Application, AMARE
# [3] = AVEFA: wild oat (Avena fatua), read-out: Visual Growth Reduction (%) 14 Days After Application, AVEFA
# [4] = CHEAL: lambsquarters (Chenopodium album), read-out: Visual Growth Reduction (%) 14 Days After Application, CHEAL
# [5] = CIRAR: canada thistle (Cirsium arvense), read-out: Visual Growth Reduction (%) 14 Days After Application, CIRAR
# [6] = CYPES: yellow nutsedge (Cyperus esculentus), read-out: Visual Growth Reduction (%) 14 Days After Application, CYPES
# [7] = DIGSA: crabgrass (Digitaria sanguinalis), read-out: Visual Growth Reduction (%) 14 Days After Application, DIGSA
# [8] = ECHCG: barnyardgrass (Echinochloa crus-galli), read-out: Visual Growth Reduction (%) 14 Days After Application, ECHCG
# [9] = IPOHE: ivy-leaf morning glory (Ipomoea hederacea), read-out: Visual Growth Reduction (%) 14 Days After Application, IPOHE
# [10] = KCHSC: kochia (Bassia scoparia), read-out: Visual Growth Reduction (%) 14 Days After Application, KCHSC
# [11] = ORYSA: rice (Oryza sativa), read-out: Visual Growth Reduction (%) 14 Days After Application, ORYSA
# [12] = SETFA: giant foxtail (Setaria faberi), read-out: Visual Growth Reduction (%) 14 Days After Application, SETFA
# [13] = SORVU: grain sorghum (Sorghum vulgare), read-out: Visual Growth Reduction (%) 14 Days After Application, SORVU
# [14] = STEME: common chickweed (Stellaria media), read-out: Visual Growth Reduction (%) 14 Days After Application, STEME
# [15] = TRZAS: wheat, spring (Triticum aestivum), read-out: Visual Growth Reduction (%) 14 Days After Application, TRZAS
SMILES,pest or weed control at 140 g/ha [1] [%],pest or weed control at 140 g/ha [2] [%],pest or weed control at 140 g/ha [3] [%],pest or weed control at 140 g/ha [4] [%],pest or weed control at 140 g/ha [5] [%],pest or weed control at 140 g/ha [6] [%],pest or weed control at 140 g/ha [7] [%],pest or weed control at 140 g/ha [8] [%],pest or weed control at 140 g/ha [9] [%],pest or weed control at 140 g/ha [10] [%],pest or weed control at 140 g/ha [11] [%],pest or weed control at 140 g/ha [12] [%],pest or weed control at 140 g/ha [13] [%],pest or weed control at 140 g/ha [14] [%],pest or weed control at 140 g/ha [15] [%]
"COC(=O)c1nc(-c2ccc(C(F)(F)F)c(/C=N/N(C)C)c2Cl)ccc1Cl [F142, Methyl (E)-3-chloro-6-(2-chloro-3-((2,2-dimethylhydrazono)methyl)-4-(trifluoromethyl)phenyl)picolinate]",0 to 29,60 to 74,0 to 29,30 to 44,0 to 29,0 to 29,0 to 29,0 to 29,60 to 74,0 to 29,0 to 29,0 to 29,60 to 74,0 to 29,0 to 29
"COC(=O)c1nc(-c2ccc(C(F)(F)F)c(C#N)c2Cl)ccc1Cl [F143, methyl 3-chloro-6-(2-chloro-3-cyano-4-(trifluoromethyl)phenyl)picolinate]",0 to 29,45 to 59,0 to 29,30 to 44,0 to 29,0 to 29,75 to 84,0 to 29,75 to 84,0 to 29,0 to 29,0 to 29,60 to 74,0 to 29,0 to 29
"COC(=O)c1nc(-c2cc3c(cc2Cl)OCO3)ccc1Cl [F144, Methyl 3-chloro-6-(6-chlorobenzo[d] [1,3]dioxol-5-yl) picolinate]",0 to 29,45 to 59,0 to 29,75 to 84,0 to 29,0 to 29,0 to 29,0 to 29,75 to 84,0 to 29,0 to 29,0 to 29,0 to 29,0 to 29,0 to 29
"COC(=O)c1nc(-c2ccc(C(F)(F)F)cc2C(N)=O)ccc1Cl [F146, Methyl 6-(2-carbamoyl-4-(trifluoromethyl)phenyl)-3-chloropicolinate]",0 to 29,0 to 29,0 to 29,0 to 29,0 to 29,0 to 29,0 to 29,0 to 29,30 to 44,0 to 29,0 to 29,0 to 29,0 to 29,0 to 29,0 to 29
"COC(=O)c1nc(-c2ccc(C(F)(F)F)cc2C(N)=O)c(Cl)cc1Cl [F147, Methyl 6-(2-carbamoyl-4-(trifluoromethyl)phenyl)-3,5-dichloropicolinate]",0 to 29,45 to 59,0 to 29,30 to 44,0 to 29,0 to 29,0 to 29,0 to 29,30 to 44,0 to 29,0 to 29,0 to 29,0 to 29,0 to 29,0 to 29
"O=C(O)c1nc(-c2cc3c(cc2Cl)OCO3)ccc1Cl [F148, 3-Chloro-6-(6-chlorobenzo[d][1,3]dioxol-5-yl)picolinic acid]",0 to 29,75 to 84,0 to 29,75 to 84,0 to 29,–,0 to 29,0 to 29,30 to 44,0 to 29,0 to 29,0 to 29,0 to 29,0 to 29,0 to 29
"COC(=O)c1nc(-c2ccc(Cl)c(N(C)C)c2)ccc1Cl [F149, Methyl 3-chloro-6-(4-chloro-3-(dimethylamino)phenyl)picolinate]",0 to 29,75 to 84,0 to 29,95 to 100,60 to 74,0 to 29,0 to 29,0 to 29,30 to 44,75 to 84,0 to 29,0 to 29,0 to 29,0 to 29,0 to 29
"COC(=O)c1nc(-c2cc3c(cc2Cl)OCO3)c(F)cc1Cl [F150, Methyl 3-chloro-6-(6-chlorobenzo[d] [1,3]oxol-5-yl)-5-fluoropicolinate]",0 to 29,75 to 84,0 to 29,75 to 84,85 to 94,0 to 29,0 to 29,0 to 29,85 to 94,45 to 59,0 to 29,30 to 44,0 to 29,0 to 29,0 to 29
"COC(=O)c1nc(-c2cc(Br)c(C(F)(F)F)cc2Cl)ccc1Cl [F151, Methyl 6-(5-bromo-2-chloro-4-(trifluoromethyl)phenyl)-3-chloropicolinate]",0 to 29,95 to 100,0 to 29,95 to 100,45 to 59,0 to 29,0 to 29,0 to 29,95 to 100,45 to 59,0 to 29,0 to 29,95 to 100,0 to 29,0 to 29
"COC(=O)c1nc(-c2cc(Br)c(C(F)(F)F)cc2Cl)c(F)cc1Cl [F152, Methyl 6-(5-bromo-2-chloro-4-(trifluoromethyl)phenyl)-3-chloro-5-fluoropicolinate]",0 to 29,95 to 100,0 to 29,95 to 100,45 to 59,0 to 29,60 to 74,0 to 29,95 to 100,85 to 94,0 to 29,0 to 29,95 to 100,0 to 29,0 to 29
"COC(=O)c1nc(-c2cc3c(cc2Cl)OC(F)(F)O3)c(F)cc1Cl [F153, Methyl 3-chloro-6-(6-chloro-2,2-difluorobenzo[d] [1,3]dioxol-5-yl)-5-fluoropicolinate]",60 to 74,95 to 100,60 to 74,85 to 94,85 to 94,0 to 29,85 to 94,75 to 84,95 to 100,85 to 94,0 to 29,85 to 94,95 to 100,0 to 29,30 to 44
